Measured values as given in patent US8536160B2, “Azaheterocyclyl derivatives of androstanes and androstenes as medicaments for cardiovascular disorders” (priority 2006, dated 2013).
Counter-ions that a name gives are not always drawn. Like-named read-outs stand apart in the source and are kept apart here.

How the values were obtained:
[1] = target: Dog Kidney Na+, K+-ATPase (Canis lupus familiaris, UniProt P50997); assay: Inhibition of the enzymatic activity of purified Na+,K+-ATPase (hydrolysis of 32P-ATP); type: biochemical
fresh rat hepatocytes = assay: Metabolism in fresh rat hepatocytes; details: for % of compound metabolized after 60 minutes: test item nominal concentration 45 μM, 2590000-3084000 hepatocytes/ml
anesthetized guinea-pig = assay: Inotropic effect and lethal dose, slow intravenous infusion in anesthetized guinea-pig; type: in vivo; parameters: Maximum dose infused: unit not given here; details: for Emax / ED80 / ED (max): Cavia porcellus, iv, 1.5 h; for Emax / ED80 / ED (max) / Dead/treated / Maximum dose infused: slow i.v. infusion over 90 minutes; for Emax / ED80 / ED (max) / % decrease from Emax after 20 min from the end of the infusion / Dead/treated / Lethal dose/ED80 (safety ratio): anesthetized guinea-pig; for Emax: maximum increase in contractile force, read-out: Emax % increase in +dP/dTmax; for ED80: read-out: ED80 (inotropic potency, dose increasing +dP/dTmax by 80%); for ED (max): read-out: EDmax (dose inducing maximum positive inotropic effect); for % decrease from Emax after 20 min from the end of the infusion: duration of the inotropic effect; for Maximum dose infused: maximum dose infused in the survived animals; for Lethal dose/ED80 (safety ratio): calculated for the died animals
[2] = test system: hypertensive ouabain-sensitive rats (OS rats); assay: Systolic blood pressure fall in hypertensive ouabain-sensitive rats (OS rats); type: in vivo, rat; details: 10 μg/kg/day by mouth for four weeks
Description: The ability of these compounds to lower blood pressure was tested by using an animal model with induced hypertension, in particular, rats made hypertensive by chronic infusion of ouabain, according to Ferrari P., et al. J. Pharm. Exp. Ther. 1998, 285, 83-94.
The procedure adopted to test the antihypertensive activity of the compounds on the above mentioned model was the following: systolic blood pressure (SBP) and heart rate (HR) were measured by an indirect tailcuff method. The blood pressure lowering effect was measured in hypertensive ouabain-sensitive rats. The compound, suspended in Methocel 0.5% (w/v), was administered daily at the dose of 10 μg/kg/day by mouth for four weeks. SBP and HR were measured weekly 6 hours after the treatment. The comparison are ouabain sensitive rats (OS rats) and non hypertensive rats (control), both treated only with Methocel 0.5% (w/v). As shown in the following Table 4, treatment with a compound of the present invention lowers the blood pressure of OS rats (170 mm Hg) to almost the level of control rats (150 mm Hg).

[3] = read-out: Na+, K+-ATPase Inhibition IC50
[4] = dog kidney enzyme, hydrolysis of 32P-ATP in presence and absence of compound, read-out: Na+, K+-ATPase Inhibition IC50

SMILES	% of compound metabolized after 60 minutes (fresh rat hepatocytes)	IC50 ([1]; Na+, K+-ATPase Inhibition IC50)	Emax (anesthetized guinea-pig)	ED80 (anesthetized guinea-pig)	ED (max) (anesthetized guinea-pig)	% decrease from Emax after 20 min from the end of the infusion (anesthetized guinea-pig)	Dead/treated (anesthetized guinea-pig)	Maximum dose infused (anesthetized guinea-pig)	further results
C=C1CC2C/C(=N/O[C@@H]3CCNC3)CC[C@]2(C)[C@H]2CC[C@]3(C)C(=O)CC[C@H]3[C@H]12.Cl (stereo partly drawn) [I-cg, (E,Z) 3-[3′-(R)-Pyrrolidinyl]oxyimino-7-methyleneandrostane-17-one hydrochloride]	28%								IC50 [1, 3]: 240 nM
CC12CCC3C(CC(O)C4CC(=NOC5CCNC5)CCC43C)C1CCC2=O (single isomer, unassigned) [I-an, hydrochloride]	21%	580 nM							
CC12CCC3C(C(O)CC4CC(=NOC5CCNC5)CCC43C)C1CCC2=O (mixture of isomers) [I-cj, (E,Z) 3-[3′-(R)-Pyrrolidinyl]oxyimino-7α-hydroxyandrostane-17-one fumarate]	20%	220 nM							
CON=C1CC2C3CCC(=O)C3(C)CCC2C2(C)CCC(=NOC3CCNC3)CC12O (single isomer, unassigned) [I-bw]	24%								IC50 [1, 4]: 39 nM
C[C@]12CC[C@H]3[C@@H](CC[C@@]4(O)CC(=NO[C@@H]5CCNC5)CC[C@]34C)[C@@H]1CCC2=O (mixture of isomers) [I-am, (E,Z) 3-(3-(R)-Pyrrolidinyl)oxyimino-5α-hydroxyandrostane-17-one hemifumarate]	12%	210 nM	221%	3.87 µmol/kg	15.3 µmol/kg	100%	0/3	25.2	
CC12CCC3C(CC(CCO)C4CC(=NOC5CCNC5)CCC43C)C1CCC2=O (mixture of isomers) [I-bc, (E,Z) 3-[3′-(R)-Pyrrolidinyl]oxyimino-6α-(2-hydroxyethyl)androstane-17-one hydrochloride]			183%	1.89 µmol/kg	5.08 µmol/kg	28%	0/3	6.3	IC50 [1, 4]: 58 nM
C#CC1CC2C3CCC(=O)C3(C)CCC2C2(C)CCC(=NOC3CCNC3)CC12 (mixture of isomers) [I-bb, (E,Z) 3-[3′-(R)-Pyrrolidinyl]oxyimino-6α-ethynylandrostane-17-one hydrochloride]		110 nM	147%	3.7 µmol/kg	6.39 µmol/kg	29%	0/3	6.5	
CC12CCC3C(CC(=O)C4CC(=NOC5CCNC5)CCC43C)C1CCC2=O (mixture of isomers) [I-ae, (E,Z) 3-[3-(R)-Pyrrolidinyl]oxyiminoandrostane-6,17-dione hydrochloride]		26 nM	147%	2.28 µmol/kg	4.26 µmol/kg	74%	0/3	6.4	
CC12CCC3C(CC(=C(F)F)C4CC(=NOC5CCNC5)CCC43C)C1CCC2=O (mixture of isomers) [I-az, (E,Z) 3-[3-(R)-Pyrrolidinyl]oxyimino-6-difluoromethyleneandrostan-17-one hydrochloride]		21 nM	244%	6.69 µmol/kg	18.4 µmol/kg	20%	0/3	25.2	
C=C1C[C@@H]2[C@H](CC[C@]3(C)C(=O)CC[C@@H]23)[C@@]2(C)CC[C@@H](SC3CCNC3)CC12.O=C(O)/C=C/C(=O)O (mixture of isomers) [I-db, 3α-[3-(RS)-Pyrrolidinylthio]-6-methyleneandrostane-17-one fumarate]	25%								IC50 [1, 3]: 20000 nM; HR beats/min. [2]: 387 beats/min.; HR % beats/min ([2]; change versus OS rats on vehicle): +6.6%; SBP mmHg ([2]; measured 6 hours after treatment, tail-cuff): 153.0 mmHg; SBP - % ([2]; versus OS rats on vehicle): 10.3%; SBP - mmHg (fall) ([2]; versus OS rats on vehicle): 17.0 mmHg
C[C@]12CC[C@H]3[C@@H](C/C(=N\O)[C@@]4(O)CC(=NO[C@@H]5CCNC5)CC[C@]34C)[C@@H]1CCC2=O (mixture of isomers) [I-bp, (E,Z) 3-[3-(R)-Pyrrolidinyl]oxyimino-5α-hydroxy-6-(E)-hydroxyiminoandrostane-17-one hydrochloride]	8%		226%	0.37 µmol/kg	1.8 µmol/kg	100%		4.3	
CC12CCC3C(CC(O)C4CC(=NOC5CCNC5)CCC43C)C1CCC2=O (single isomer, unassigned) [I-dp, hydrochloride]		1200 nM	358%	3.92 µmol/kg	43.6 µmol/kg		2/2	148	Lethal dose/ED80 (safety ratio) (anesthetized guinea-pig): 49
C[C@]12CCC(=NOCCN)CC1C(=O)C[C@@H]1[C@@H]2CC[C@]2(C)C(=O)CC[C@@H]12.Cl (mixture of isomers) [compd 22b, (EZ) 3-(2-aminoethoxyimino)androstane-6,17-dione hydrochloride, reference compound]	95%		182%	1.82 µmol/kg	5.74 µmol/kg	100%	7/8	32.1	Lethal dose/ED80 (safety ratio) (anesthetized guinea-pig): 22.6; metabolism in fresh rat hepatocytes within 60 minutes (in words) (fresh rat hepatocytes; 45 μM): almost completely metabolized
CC1CC2CC(=NOC3CCNC3)CCC2(C)C2CCC3(C)C(=O)CCC3C12 (mixture of isomers) [I-cl, (E,Z) 3-[3′-(R)-Pyrrolidinyl]oxyimino-7β-methylandrostane-17-one hydrochloride]		150 nM	187%	3.34 µmol/kg	6.34 µmol/kg	7%	0/3	6.4	
CON=C1CC2C3CCC(=O)C3(C)CCC2C2(C)CCC(=NOC3CCNC3)CC12 (single isomer, unassigned) [I-be]	42%	260 nM							
CC12CCC3C(C(O)C(CO)C4CC(=NOC5CCNC5)CCC43C)C1CCC2=O (single isomer, unassigned) [I-dk, hydrochloride]	5%	5.8 nM							
CC12CCC3C(C(=O)C(CO)C4CC(=NOC5CCNC5)CCC43C)C1CCC2=O (mixture of isomers) [I-cs, (E,Z) 3-[3′-(R)-Pyrrolidinyl]oxyimino-6α-hydroxymethylandrostane-7,17-dione fumarate]	5%								IC50 ([1]; Na+, K+-ATPase Inhibition IC50, dog kidney enzyme, hydrolysis of 32P-ATP in presence and absence of compound): 13 nM
